Experimental data taken from publication PMC3409115, “Diverse Inhibitor Chemotypes Targeting Trypanosoma cruzi CYP51” (PLoS Neglected Tropical Diseases, 2012).
Like-named read-outs stand apart in the source and are kept apart here.

What was measured:
T. cruzi CYP51 = target: T1, T. cruzi CYP51 (Trypanosoma cruzi, UniProt Q7Z1V1); assay: HTS spectral-mode binding screen, type II difference spectra scored 0-5
T1 construct: had the first 21 residues upstream of K22 replaced with the fragment MAKKKKK; His6 (C); made in house
T1 sequence (Q7Z1V1 15-481, looked up, natural form): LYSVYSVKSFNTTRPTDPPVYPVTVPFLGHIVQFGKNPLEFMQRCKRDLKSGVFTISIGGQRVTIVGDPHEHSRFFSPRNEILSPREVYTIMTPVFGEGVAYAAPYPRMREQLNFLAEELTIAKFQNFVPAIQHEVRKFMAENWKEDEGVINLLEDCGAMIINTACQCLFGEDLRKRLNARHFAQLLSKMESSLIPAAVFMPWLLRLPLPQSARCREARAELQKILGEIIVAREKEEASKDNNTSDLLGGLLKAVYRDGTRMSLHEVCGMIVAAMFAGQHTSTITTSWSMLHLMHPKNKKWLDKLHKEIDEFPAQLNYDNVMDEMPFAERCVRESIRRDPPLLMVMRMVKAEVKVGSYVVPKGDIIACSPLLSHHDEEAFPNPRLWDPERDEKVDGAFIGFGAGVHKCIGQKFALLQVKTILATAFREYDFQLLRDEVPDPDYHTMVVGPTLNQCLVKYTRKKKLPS

[1] = system: T. cruzi-infected skeletal myoblasts (intracellular amastigotes); assay: Hit cross-validation in T. cruzi-infected mammalian cells (image-based assay); format: cell-based, Trypanosoma cruzi
Experimental: Bovine embryo skeletal muscle cells or mouse C2C12 myoblasts (ATCC#CRL-1772) used in the cross-validation assay, were cultivated respectively in RPMI 1640 medium supplemented with 5% horse serum and Dulbecco's Modified Eagle's Medium H-21 containing 4.5 g/l glucose (DMEM H-21) (Cell Culture Facility, UCSF), supplemented with 5% fetal bovine serum (FBS) (Sigma Chemical Co., St. Louis, MO, USA), 25 mM HEPES, 2 mM L-glutamine, 100 U/ml penicillin, 100 µg/ml streptomycin. T. cruzi CAI-72 trypomastigotes were obtained from supernatant of infected cultures 4 to 7 days post-infection. Cultures were maintained at 37°C in an atmosphere of 5% CO2. To harvest parasites, the supernatant of infected cultures containing released trypomastigotes was collected and centrifuged at 600 rpm for 5 min to remove cell debris; the pellet was then discarded and the trypomastigotes remaining in the media were concentrated by spinning the culture tubes at 3300 rpm for 15 minutes. The parasite pellet was re-suspended in 2–5 ml of fresh media. Trypomastigote concentration was determined using a Neubauer hemocytometer.
(§1) Compound cross-validation in T. cruzi infected skeletal myoblasts (bovine embryo skeletal muscle or C2C12 lineage) was performed according to the protocol adapted from Engel and co-authors. Compounds stored as 10 mM stocks in DMSO were freshly diluted immediately prior to use. […] To prepare plates for the assay, skeletal myoblasts cultured in […] flasks were washed once with phosphate buffered saline (PBS) and then incubated with 0.25% trypsin in PBS for 1–3 minutes for detachment. The trypsin solution was removed and myoblasts were released from the flask bottom. Fresh medium was added and cell concentration was determined using a Neubauer hemocytometer. Myoblasts in 50 µl of culture medium were transferred to the clear-bottom wells of black 96-well plates (Greiner Bio-One, #655090) at a density of 1500 cells/well and infected with 50 µl trypomastigote culture at 7500 parasites/well (1∶5 ratio). The cells were allowed to adhere and spread for 24 h in the incubator before the media was removed and 100 µl of fresh medium containing 0, 0.04, 0.12, 0.37, 1.10, 3.30 or 10 µM of test compound was added to each well, followed by 72 h incubation at 37°C in an atmosphere of 5% CO2. Posaconazole was used as a positive control at the same concentrations as the test compounds. The cells were then fixed by adding 100 µl/well of 8% formaldehyde in PBS, resulting in a 4% working concentration of formaldehyde. To stain the nucleus of the host cell and the nucleus and kinetoplast of parasites, cell membranes were first permeabilized by washing once with 100 µl of 0.1% Triton X-100 in PBS, then treated for 1 h with 0.2 µg/ml of the fluorescent DNA dye, 4,6-diamidino-2-phenylindole (DAPI), followed by one wash with PBS. The fixed plates were kept at 4°C and protected from light until images were acquired.
(§2) Plates were allowed to equilibrate to room temperature and images were acquired by the IN Cell Analyzer 2000 (GE Healthcare) with a 20× objective, 5 fields per well, with 350/50 nm and 460/40 nm fluorescent excitation and emission filters. In the absence of drug cytotoxicity, at least 800 cells were imaged and counted per well. The images were processed and analyzed by IN Cell Analyzer Developer 1.6 software. The size parameters used to segment host and parasite organelles were 125 µm^2 for host nucleus, and 1–2 µm^2 for parasite nucleus/kinetoplast. Since DAPI also strongly stains host heterochromatin regions that display as shapes resembling parasites ( Figure 3 ), particles co-localized to host nuclei were excluded from quantification, while parasite aggregates near the host nucleus were counted as infected cells.

[2] = system: host cell (skeletal myoblasts, bovine embryo skeletal muscle or C2C12); assay: Host cell toxicity in the cross-validation assay; format: cell-based; details: host cells in cross-validation assay, up to 10 µM
Experimental: as §1
as §2, with “cells. Numbers of host cells and intracellular amastigotes were determined based on host cell and parasite nucleus and parasite kinetoplast quantification, providing a measure of growth inhibition during the first 72 h of post-infection treatment compared to untreated controls.” for “cells.”
^aToxicity was assessed as the highest percentage of host cell growth inhibition caused by compound treatment. Scores are assigned as 1-<20%; 2-21-30%; 3- 31-40%; 4-41-50% and 5->50% growth inhibition.

[3] = spectral mode, four serial dilutions 2 µM to 12.5 µM, 2 µM CYP51
[4] = Trypanosoma cruzi, Myoblast, 72 h, read-out: EC50 against T. cruzi parasites in HTS assay used to rank order the hits
[5] = Trypanosoma cruzi, Myoblast, 72 h, T. cruzi-infected myoblasts, 72 h treatment, read-out: EC50 against T. cruzi parasites in HTS assay used to rank order the hits
[6] = type II difference spectra scored 0-5, second highest rated hit compound cluster

Row | Compound | HTS binding score (T. cruzi CYP51; [3]) | EC50 [1, 4] [µM] | Toxicity score (highest percentage of host cell growth inhibition) [2] | EC50 [1, 5] [µM] | HTS binding score (T. cruzi CYP51; [6]) | EC50 ([1]; T. cruzi-infected myoblasts, 72 h treatment, read-out: EC50 against T. cruzi parasites in HTS assay used to rank order the hits) [µM] | EC50 ([1]; Trypanosoma cruzi, Myoblast, 72 h, read-out: EC50 averaged from two independent cross-validation assays for individually repurchased hits) [µM]
1 | OC(/C=C/c1cccc(C(F)(F)F)c1)(Cn1ccnc1)c1cccnc1 (centres unmarked) [Compound 23] | 1 | 2.89 | 1 (1-<20%) | – | – | – | –
2 | Cc1ccc(NC(=O)c2sc3nc(-c4ccncc4)ccc3c2N)cc1Cl [Compound 22] | 2 | 2.86 | 2 (2-21-30%) | – | – | – | –
3 | Cc1ccc(OCCCn2ccnc2)c(C)c1 [Compound 45] | 5 | – | 3 (3- 31-40%) | 8.01 | – | – | –
4 | CCOC(=O)C1=C(N)Oc2ccc3ccccc3c2C1c1cccnc1 (centres unmarked) [Compound 51] | 2 | – | 1 (1-<20%) | 8.58 | 2 | – | –
5 | COC(=O)c1ccc(-c2ccncc2)s1 [Compound 21] | 4 | 2.74 | 2 (2-21-30%) | – | – | – | –
6 | O=C(c1ccc(Cl)cc1Cl)C(c1cccnc1)C(O)C(Cl)(Cl)Cl (centres unmarked) [Compound 34] | 5 | 6.87 | 2 (2-21-30%) | – | – | – | –
7 | O=P(Nc1cccnc1)(Oc1ccccc1Cl)Oc1ccccc1Cl [Compound 41] | 5 | 7.73 | 1 (1-<20%) | – | – | – | –
8 | CC(C)=CCCC1=CCC2(COC(c3cccnc3)OC2)C(C)C1 (centres unmarked) [Compound 31] | 2 | 6.39 | 1 (1-<20%) | – | – | – | –
9 | CCCCNC(=O)c1cc(-c2ccncc2)nc2ccccc12 [Compound 50] | 5 | 8.4 | 4 (4-41-50%) | – | – | – | –
10 | O=C(/C=C/c1cccs1)c1ccncc1 [Compound 56] | 3 | 9.62 | 3 (3- 31-40%) | – | – | – | –
11 | OC(c1ccccc1)(c1ccccc1)c1c[nH]cn1 [Compound 47] | 3 | 8.22 | 2 (2-21-30%) | – | – | – | –
12 | Cc1ccc2nc(NC(=O)C3CCN(S(=O)(=O)c4cccnc4)CC3)sc2c1 [Compound 39] | – | 7.64 | 1 (1-<20%) | – | – | – | –
13 | COC(=O)C1=C(C)N(Cc2cccnc2)C(=O)/C1=C\c1ccccc1OCc1ccccc1 [Compound 53] | 3 | 9.06 | 1 (1-<20%) | – | – | – | –
14 | CCOC(=O)C1=C(C)N(C)C(C)=C(C(=O)OCC)C1c1ccncc1 [Compound 29] | 5 | 5.18 | 1 (1-<20%) | – | – | – | –
15 | Cn1c(SCc2nc(-c3ccc(Cl)cc3)no2)nnc1-c1ccncc1 [Compound 40] | 5 | 7.67 | 1 (1-<20%) | – | – | – | –
16 | O=C(Cc1coc2ccc3ccccc3c12)NCc1cccnc1 [Compound 44] | – | 7.93 | 2 (2-21-30%) | – | – | – | –
17 | Cc1ccc(OCC(=O)ONC(=N)c2cccnc2)c(Br)c1 [Compound 54] | 3 | 9.48 | 1 (1-<20%) | – | – | – | –

Row | Compound | HTS binding score (T. cruzi CYP51; [3]) | EC50 [1, 4] [µM] | Toxicity score (highest percentage of host cell growth inhibition) [2] | EC50 [1, 5] [µM] | HTS binding score (T. cruzi CYP51; [6]) | EC50 ([1]; T. cruzi-infected myoblasts, 72 h treatment, read-out: EC50 against T. cruzi parasites in HTS assay used to rank order the hits) [µM] | EC50 ([1]; Trypanosoma cruzi, Myoblast, 72 h, read-out: EC50 averaged from two independent cross-validation assays for individually repurchased hits) [µM]
18 | OC(/C=C/c1ccccc1)(Cn1ccnc1)c1ccncc1 (centres unmarked) [Compound 12] | 1 | 1.1 | 1 (1-<20%) | – | – | – | –
19 | Brc1ccc(-c2csc(-c3ccncc3)n2)cc1 [Compound 18] | 3 | 2.38 | 1 (1-<20%) | – | – | – | –
20 | CCc1ccc(-c2cc3c(=O)n(CC(=O)NCc4cccnc4)nc(C)n3n2)cc1 [Compound 42] | 2 | 7.75 | 3 (3- 31-40%) | – | – | – | –
21 | O=C(NCc1cccnc1)/C(=C\c1cccc(Oc2ccccc2)c1)S(=O)(=O)c1ccccc1 [Compound 52] | – | 8.99 | 5 (5->50% growth inhibition) | – | – | – | –
22 | CC1=C(C(=O)OC2CCCC2)C(c2ccncc2)C2=C(O)CC(C)(C)CC2=N1 (centres unmarked) [Compound 2] | – | – | 4 (4-41-50%) | 0.31 | 4 | 0.306 | –
23 | Oc1cccc(Nc2nc(-c3ccncc3)cs2)c1 [Compound 37] | – | 7.33 | 4 (4-41-50%) | – | – | – | –
24 | CC1=Nc2ncnn2C(c2cccnc2)/C1=C(\O)OC1CCCCC1 (centres unmarked) [Compound 55] | – | 9.54 | 1 (1-<20%) | – | – | – | –
25 | N#C/C(=C\C=C\c1ccccc1)C(=O)NCc1cccnc1 [Compound 49] | 3 | 8.26 | 1 (1-<20%) | – | – | – | –
26 | CN(C)C(C/N=C(\S)NCCc1ccccc1)c1cccnc1 (centres unmarked) [Compound 46] | 1 | 8.18 | 1 (1-<20%) | – | – | – | –
27 | c1ccc(CC(NCc2ccncc2)c2ccccc2)cc1 (centres unmarked) [Compound 27] | 5 | 4.82 | 1 (1-<20%) | – | – | – | –
28 | Nc1c(C(=O)NCCc2c[nH]c3ccccc23)sc2nc(-c3cccnc3)ccc12 [Compound 57] | 2 | 9.74 | 1 (1-<20%) | – | – | – | –
29 | O=C(/C(=C/c1ccc(F)cc1)n1cncn1)c1ccc(Cl)cc1Cl [Compound 43] | – | 7.8 | 3 (3- 31-40%) | – | – | – | –
30 | COc1ccc(CNc2nc3ccccc3c3nc(-c4ccncc4)nn23)cc1 [Compound 15] | 5 | 1.93 | 3 (3- 31-40%) | – | – | – | 1.93
31 | Clc1ccc(Cl)c(SCCc2ccncc2)c1 [Compound 38] | – | 7.41 | 2 (2-21-30%) | – | – | – | –
32 | O=S(=O)(NCc1csc(-c2cccnc2)n1)c1ccc(Br)cc1 [Compound 32] | – | 6.5 | 2 (2-21-30%) | – | – | – | –
33 | CCn1c(C(=O)NCc2cccnc2)cc2oc3ccccc3c21 [Compound 16] | – | 2.2 | 4 (4-41-50%) | – | – | – | –
34 | CC(C)/C=C1\CC/C(=C\c2ccncc2)C1=O [Compound 35] | – | 7.15 | 1 (1-<20%) | – | – | – | –
